Reference: US12383519B2, “Application of CaMK4 in preparation of medicine for preventing and treating psoriasis” (priority 2021, dated 2025)

B1: IL-10: exogenous interleukin-10, central anti-inflammatory mediator, injected through tail vein (protein, UniProt P22301 19-178, looked up)
Interleukin-10: SPGQGTQSENSCTHFPGNLPNMLRDLRDAFSRVKTFFQMKDQLDNLLLKESLLEDFKGYLGCQALSEMIQFYLEEVMPQAENQDPDIKAHVNSLGENLKTLRLRLRRCHRFLPCENKSKAVEQVKNAFNKLQEKGIYKAMSEFDIFINYIEAYMTMKIRN

Tests used:
[1] = test system: IMQ-induced psoriasiform inflammation in mice; assay: IMQ-induced mouse model of psoriasis, treatment with CaMK4 inhibitor KN-93; format: in vivo; details: KN-93 0.24 mg per mouse, tail vein, vs PBS control
Protocol: (§1) An internationally used mouse model of psoriasis was used: 6-8-week-old C57BL/6 mice were given 5% IMQ applied to the shaved back skin of the mice at 62.5 mg per day for 5 days. The 6-8-week-old C57BL/6 mice were used as controls.
(§2) 1) The back skin thickness, scaling and erythema development of mice were observed on days 0 -5 after applying IMQ to the shaved back skin of mice. According to the clinical psoriasis area and severity index, the severity of back skin was evaluated by thickness, scaling and erythema. The back skin thickness was measured with vernier calipers. Scaling and erythema were scored on a scale ranging from 0-4: 0 represents none; 1 represents mild; 2 represents moderate; 3 represents significant; and 4 represents very significant.
2) Skin sections were prepared for staining with H&E, and the skin sections were stained by using the conventional universal H&E staining method.
(§3) 3) Statistical analysis of epidermal thickness. Specifically, H&E-stained sections were photographed in a double-blind manner and then measured for epidermal thickness.
5) The mRNA levels of IMQ induced mouse skin pathogenic factors were detected by quantitative PCR. The method was the same as that in the example 1.
62.5 mg of IMQ were applied to the shaved back skin of wild-type mice for 5 days. KN-93 (0.24 mg per mouse) or PBS was injected into mice through tail vein one hour before IMQ application on day 0 and day 2. Samples were collected on day 5 for subsequent experiments.

[2] = test system: IMQ-induced psoriasiform inflammation in mice; assay: IMQ-induced mouse model of psoriasis, exogenous IL-10 injection; format: in vivo; details: IL-10 1 μg per mouse, tail vein, vs PBS control
Protocol: as §1, §2, §3
62.5 mg of IMQ were applied to the shaved back skin of wild-type (WT) mice for 5 days. IL-10 (1 μg per mouse) or PBS was injected into mice through tail vein on 1 h before IMQ application on day 0 and day 2. Samples were collected on day 5 for subsequent experiments.
1) The back skin thickness, scaling and erythema development of mice were observed on days 0 -5 after applying IMQ to the shaved back skin of mice, and scored. The method is the same as that in the example 2;
2) Statistical analysis of epidermal thickness was performed; the method is the same as that in the example 2.
3) The mRNA levels of IMQ induced mouse skin pathogenic factors were detected by quantitative PCR. The method was the same as that in the example 1.

Row | Molecule | scaling ([1]; day 0 and day 2) | skin thickness ([1]; day 0 and day 2) | psoriasiform phenotype ([1]; day 0 and day 2, IMQ 5 days) | epidermal thickness ([1]; H&E sections, day 5) | mRNA level of IL-10 in skin ([1]; day 5 skin) | proinflammatory cytokines (skin mRNA, quantitative PCR) ([1]; day 5 skin) | erythema ([2]; day 0 and day 2) | psoriasiform phenotype ([2]; day 0 and day 2) | scaling ([2]; day 0 and day 2) | skin thickness ([2]; day 0 and day 2) | epidermal thickness ([2]; day 5) | proinflammatory cytokines (skin mRNA, quantitative PCR) ([2]; day 5)
1 | COc1ccc(S(=O)(=O)N(CCO)c2ccccc2CN(C)C/C=C/c2ccc(Cl)cc2)cc1 [KN-93] | reduce | reduce | less than that of control mice | reduce | higher than that of control mice | reduce |  |  |  |  |  | 
2 | B1 |  |  |  |  |  |  | reduced | attenuated | reduced | reduced | reduced | reduced
